Measurements taken from patent US7232829B2, “Therapeutic compounds and methods” (Regents of the University of Minnesota, priority 2001, dated 2007).
Like-named read-outs stand apart in the source and are kept apart here.

Experiments:
rat mu-opioid receptor = target: T1, rat mu-opioid receptor (Rattus norvegicus, UniProt P33535); experiment: [3H]diprenorphine binding on transiently transfected HEK-293 cells, mu; conditions: for Ki: [3H]diprenorphine, HEK-293 cells, rat mu receptor, read-out: Ki μ
T1 construct: expressed in transfected cells; host or cells: HEK-293 (transient, calcium phosphate)
T1 sequence (P33535 whole entry): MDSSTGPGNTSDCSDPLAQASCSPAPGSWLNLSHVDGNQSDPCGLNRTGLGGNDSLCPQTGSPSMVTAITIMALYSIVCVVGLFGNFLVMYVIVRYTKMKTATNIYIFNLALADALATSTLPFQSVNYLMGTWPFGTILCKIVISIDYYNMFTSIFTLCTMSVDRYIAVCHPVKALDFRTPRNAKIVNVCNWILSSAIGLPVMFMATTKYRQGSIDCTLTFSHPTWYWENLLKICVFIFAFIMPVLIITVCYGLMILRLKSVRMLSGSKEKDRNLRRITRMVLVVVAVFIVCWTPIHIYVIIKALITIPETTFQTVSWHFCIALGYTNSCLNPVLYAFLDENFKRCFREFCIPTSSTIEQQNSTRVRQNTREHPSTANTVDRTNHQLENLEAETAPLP
Description: (§1) Receptor Binding. HEK-293 in DMEM (Gibco, BRL) supplemented with 10% Bovine Calf Serum (Hyclone) and 1% penicillin/streptomycin (Gibco, BRL) were maintained at 37° C. and in 5% CO2. Cells were seeded at 16% for 24 hours prior to transfection. Fresh media was added 2 hours prior to transfection. Cells were transfected with plasmid DNA (20 μg/100 mm plate) of either wild type or mutant receptor cDNA using the calcium phosphate precipitation method, see Chen, C.; Okayama, H. High Efficiency Transformation of Mammalian Cells by Plasmid DNA. Mol. Cell. Bio. 1987, 7, 2745–2752. Media was changed 5 hours after transfection. Transfected cells were harvested 48–72 hours after transfection for binding studies.
(§2) Sixty to 72 hours after transfection, HEK cells were washed three times with 25 mM HEPES buffer (pH 7.4) and were resuspended with 8–12 mL of 25 mM HEPES/100 mm plate. Saturation binding assays were performed in triplicate. Nonselective binding was determined using 10 μM naltrexone. Assays were incubated at room temperature for 90 minutes in a total binding volume of 0.5 mL and were terminated by filtration through a Whatman GF/B filter that had been presoaked in 0.25% poly(ethyleneimine) immediately prior to filtration. Filters were washed three times with 4 mL of ice-cold 25 mM HEPES buffer, and scintillation counting was performed with a Beckman 3801 LS Scintillation Counter. Protein concentrations were determined by the method of Bradford, see Bradford, M. M. A Rapid and Selective Method for the Quantitation of Microgram Quantities of Protein utilizing the Principle of Protein-dye Binding. Anal. Biochem. 1976, 72, 248–254. Raw binding data was analyzed with RADLIG and LIGAND (G. A. McPherson, Biosoft, Cambridge, UK). Inhibition constants (Ki) were determined from IC50 values with the Cheng-Prusoff equation, see Cheng, Y. C.; Prusoff, W. H.; Relationship between the inhibition Constant (Ki) and the concentration of inhibitor which causes 50 per cent inhibition (I50) of an enzymatic reaction. Biochem. Pharmacol. 1973, 22, 3099–3108.
(§3) As summarized in Table 2, receptor binding was determined in triplicate using [^3H]diprenorphine on HEK-293 cells that were transiently transfected with plasmids encoding rat kappa-, rat mu-, or mouse delta-opioid receptors.

[1] = target: T2, mouse delta-opioid receptor (Mus musculus, UniProt P32300); experiment: [3H]diprenorphine binding on transiently transfected HEK-293 cells, delta; conditions: for Ki: [3H]diprenorphine, HEK-293 cells, mouse delta receptor, read-out: Ki δ; for binding to delta receptor (in words): cloned receptors, HEK-293
T2 construct: expressed in transfected cells; host or cells: HEK-293 (transient, calcium phosphate)
T2 sequence (P32300 whole entry): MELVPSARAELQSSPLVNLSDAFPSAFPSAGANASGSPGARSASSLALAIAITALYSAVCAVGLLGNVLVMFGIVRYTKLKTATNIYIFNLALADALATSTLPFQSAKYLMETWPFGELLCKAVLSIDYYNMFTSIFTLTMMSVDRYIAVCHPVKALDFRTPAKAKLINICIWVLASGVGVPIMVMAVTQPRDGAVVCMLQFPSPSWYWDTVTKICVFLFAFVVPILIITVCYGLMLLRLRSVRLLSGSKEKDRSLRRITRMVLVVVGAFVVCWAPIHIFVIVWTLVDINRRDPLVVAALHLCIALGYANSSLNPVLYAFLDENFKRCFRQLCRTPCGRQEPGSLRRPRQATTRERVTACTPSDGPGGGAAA
Description: as §1, §2
As summarized in Table 2, receptor binding was determined in triplicate using [^3H]diprenorphine on HEK-293 cells that were transiently transfected with plasmids encoding rat kappa-, rat mu-, or mouse delta-opioid receptors. […] The results are consistent with the kappa agonist selectivity of compound 4b observed in the GPI. […] Binding to mu receptors was uniformly low for all regioisomers.

kappa opioid receptor = target: T3, kappa opioid receptor (Cavia porcellus, UniProt P41144); experiment: Antagonism of ethylketazocine (EK) in the electrically stimulated guinea-pig ileal longitudinal muscle (GPI) preparation; type: cell-based; conditions: for EK (κ) IC50 ratio: GPI, antagonist tested at 100 nM, mean (n)
T3 construct: tested on the electrically stimulated guinea-pig ileal longitudinal muscle (GPI); from tissue; host or cells: guinea-pig ileal longitudinal muscle
T3 sequence (P41144 whole entry): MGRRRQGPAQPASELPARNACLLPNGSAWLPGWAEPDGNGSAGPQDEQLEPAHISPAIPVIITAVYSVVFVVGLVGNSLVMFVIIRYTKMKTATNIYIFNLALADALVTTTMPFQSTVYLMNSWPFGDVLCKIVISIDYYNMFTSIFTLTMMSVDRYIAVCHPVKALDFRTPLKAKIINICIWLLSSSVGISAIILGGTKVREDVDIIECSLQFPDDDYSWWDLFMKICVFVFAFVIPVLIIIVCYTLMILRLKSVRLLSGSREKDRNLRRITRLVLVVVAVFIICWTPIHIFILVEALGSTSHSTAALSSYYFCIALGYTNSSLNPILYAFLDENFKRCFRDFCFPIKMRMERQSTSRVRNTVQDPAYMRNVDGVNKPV
Description: (§4) Smooth Muscle Preparations. […] All of the compounds were tested on the electrically stimulated guinea-pig ileal longitudinal muscle (GPI), see Rang, H. P. Stimulant Actions of Volatile Anaesthetics on Smooth Muscle. Br. J. Pharmacol. 1964, 22, 356–365, and the mouse vas-deferens (MVD), see Henderson, G.; Hughes, J.; Kosterlitz, H. W. A New Example of a Morphine-Sensitive Neuroeffector Junction: Adrenergic Transmission in the Mouse vas Deferens. Br. J. Pharmacol. 1972, 46, 764–766, preparations for their agonist and antagonist activities as previously described, see (a) Portoghese, P. S.; Lipkowski, A. W.; Takemori, A. E. Binaltorphimine and Nor-binaltorphimine, Potent and Selective Kappa-Opioid Receptor Antagonists. Life Sci. 1987, 40, 1287–1292. (b) Portoghese, P. S.; Takemori, A. E. TENA. A Selective Kappa Opioid Receptor Antagonist. Life Sci. 1985, 36, 801–805. […] Morphine (M), (−)-ethylketazocine (EK), and [D-Ala^2,D-Leu^5]enkephalin (DADLE) were employed as mu, kappa and delta selective agonists, respectively. Morphine and EK were used in the GPI, and DADLE was employed in the MVD studies. Concentration-response curves were obtained in the absence (control) and presence of the antagonist in the same preparation. Antagonist potency is expressed as an IC50 ratio, that is the IC50 of the agonist in the presence of antagonist divided by the control IC50 of the agonist in the same preparation, and as a Ke value derived from the relationship, Ke=[antagonist]/[…].

[2] = target: T4, rat kappa-opioid receptor (Rattus norvegicus, UniProt P34975); experiment: [3H]diprenorphine binding on transiently transfected HEK-293 cells, kappa; conditions: for Ki: [3H]diprenorphine, HEK-293 cells, rat kappa receptor, read-out: Ki κ
T4 construct: expressed in transfected cells; host or cells: HEK-293 (transient, calcium phosphate)
T4 sequence (P34975 whole entry): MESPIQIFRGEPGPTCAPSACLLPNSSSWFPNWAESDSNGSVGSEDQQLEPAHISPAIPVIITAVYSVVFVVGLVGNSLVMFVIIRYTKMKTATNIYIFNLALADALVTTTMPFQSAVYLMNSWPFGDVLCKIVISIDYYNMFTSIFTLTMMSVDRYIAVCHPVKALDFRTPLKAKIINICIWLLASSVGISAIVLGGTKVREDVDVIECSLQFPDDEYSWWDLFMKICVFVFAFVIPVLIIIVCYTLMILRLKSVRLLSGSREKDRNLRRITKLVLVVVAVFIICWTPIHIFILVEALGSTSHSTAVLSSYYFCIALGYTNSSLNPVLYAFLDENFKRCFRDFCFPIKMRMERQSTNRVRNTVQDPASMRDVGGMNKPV
Description: as §1, §2, §3

[3] = tested on: guinea-pig ileal longitudinal muscle (GPI); experiment: Agonist activity in the GPI assay (concentration-response compared to morphine, reversal by antagonists); type: cell-based
Description: as §4

mouse vas-deferens (MVD) = experiment: Agonist activity in the MVD assay; type: cell-based; conditions: at 1 μM
Description: as §4, with “Concentration-response curves were obtained in the absence (control) and presence of the antagonist in the same preparation.” left out

delta opioid receptor = target: T5, delta opioid receptor (Mus musculus, UniProt P32300); experiment: Antagonism of DADLE in the mouse vas-deferens (MVD) preparation; type: cell-based; conditions: for DADLE (δ) IC50 ratio: MVD, antagonist tested at 100 nM, mean ± SEM (n); for delta opioid receptor antagonist activity (in words): smooth muscle preparations
T5 construct: and the mouse vas-deferens (MVD); from tissue; host or cells: mouse vas deferens
T5 sequence (P32300 whole entry): as the sequence (P32300 whole entry) above
Description: as §4

mu opioid receptor = experiment: Antagonism of morphine (M) in the electrically stimulated guinea-pig ileal longitudinal muscle (GPI) preparation; type: cell-based; conditions: for M (μ) IC50 ratio: GPI, antagonist tested at 100 nM, mean ± SEM (n); for mu opioid receptor antagonist activity (in words): smooth muscle preparations; for M (μ) Ke: GPI preparation, agonist morphine, Ke derived from IC50 ratio
Description: as §4

Row | Structure (SMILES) | Ki (rat mu-opioid receptor) | Ki [1] | Kb (kappa opioid receptor) | kappa opioid receptor antagonist activity (in words) (kappa opioid receptor; smooth muscle preparations) | Ki [2] | binding to kappa receptor (in words) ([2]; cloned receptors, HEK-293) | binding to delta receptor (in words) [1] | EK (κ) IC50 ratio (kappa opioid receptor) | Kb (delta opioid receptor) | DADLE (δ) IC50 ratio (delta opioid receptor) | delta opioid receptor antagonist activity (in words) (delta opioid receptor) | M (μ) IC50 ratio (mu opioid receptor) | mu opioid receptor antagonist activity (in words) (mu opioid receptor) | M (μ) Ke (mu opioid receptor) | other results
1 | N=C(N)Nc1ccc2[nH]c3c(c2c1)C[C@@]1(O)[C@H]2Cc4ccc(O)c5c4[C@@]1(CCN2CC1CC1)[C@H]3O5 [Compound 3, 5′-Guanidino-17-(cyclopropylmethyl)-6,7-didehydro-4,5α-epoxy-3,14-hydroxyindolo-[2′,3′:6,7]morphinian, reference compound] | 99.7 ± 8.7 nM | 24.8 ± 11.3 nM | 0.16 nM | highly potent and selective kappa opioid receptor antagonist | 0.14 ± 0.03 nM | – | – | – | – | – | – | – | – | – | kappa antagonist potency relative to norBNI 1 (kappa opioid receptor; smooth muscle preparations): approximately four-fold; affinity for the kappa receptor relative to mu and delta receptors ([2]; cloned receptors, HEK-293): greater than two orders of magnitude
2 | N=C(N)Nc1ccc2c3c([nH]c2c1)[C@@H]1Oc2c(O)ccc4c2[C@@]12CCN(CC1CC1)[C@H](C4)[C@]2(O)C3 [Compound 4b, 6′-Guanidino-17-(cyclopropylmethyl)-6,7-didehydro-4,5α-epoxy-3,14-hydroxyindolo-[2′,3′:6,7]morphinian] | 81.8 ± 20.7 nM | 20.3 ± 6.7 nM | – | – | 1.15 ± 0.39 nM | kappa-selective | – | – | – | – | – | – | – | – | agonist potency relative to that of morphine ([3]; GPI assay, FIG. 5): 51 fold; agonist activity and selectivity (in words) ([3]; GPI assay, with MVD results): kappa-selective agonist; reversal of the agonist effect by naltrexone ([3]; GPI, naltrexone 500 nM): only partially reversed; reversal of the agonist effect by norBNI ([3]; GPI, norBNI 20 nM): completely reversed; agonist activity in MVD assay (mouse vas-deferens (MVD)): inactive as an agonist; affinity for kappa receptors relative to GNTI ([2]; cloned receptors, HEK-293): one-tenth
3 | N=C(N)Nc1cccc2[nH]c3c(c12)C[C@@]1(O)[C@H]2Cc4ccc(O)c5c4[C@@]1(CCN2CC1CC1)[C@H]3O5 [Compound 4a, 4′-Guanidino-17-(cyclopropylmethyl)-6,7-didehydro-4,5α-epoxy-3,14-hydroxyindolo-[2′,3′:6,7]morphinian] | – | – | 80 nM | virtually inactive | – | eliminated binding | eliminated binding | 2.3 (2) | 263 nM | 1.4 (2) | virtually inactive | 0.34 (2) | virtually inactive | – | binding to mu receptor (in words) (rat mu-opioid receptor; cloned receptors, HEK-293): eliminated binding
4 | N=C(N)Nc1cccc2c3c([nH]c12)[C@@H]1Oc2c(O)ccc4c2[C@@]12CCN(CC1CC1)[C@H](C4)[C@]2(O)C3 [Compound 4c, 7′-Guanidino-17-(cyclopropylmethyl)-6,7-didehydro-4,5α-epoxy-3,14-hydroxyindolo-[2′,3′:6,7]morphinian] | 181 ± 20 nM | 2.75 ± 0.48 nM | 100 nM | inactive | 69.1 ± 25 nM | – | delta selectivity | 2.0 (2) | 0.96 nM | 105 ± 30 (4) | potent delta opioid receptor antagonist | 1.4 ± 0.9 (3) | inactive | 238 nM | –
5 | Oc1ccc2c3c1O[C@H]1c4[nH]c5c(c4C[C@@]4(O)[C@@H](C2)N(CC2CC2)CC[C@]314)C[C@@]1(O)[C@H]2Cc3ccc(O)c4c3[C@@]1(CCN2CC1CC1)[C@H]5O4 [Compound 1, Norbinaltorphimine, reference compound] | – | – | – | – | – | – | – | – | – | – | – | – | – | 12.5 nM | Kb (kappa opioid receptor; GPI preparation, agonist ethylketazocine, Ke derived from IC50 ratio, read-out: EK (κ) Ke): 0.41 nM
